Laboratory results as given in ChEMBL document CHEMBL1201862, “PubChem BioAssay data set” (2004).
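Compound exposure: 48 hours, 5 concentrations, 96-well plates. Here, GI50 denotes the concentration required for 50% inhibition of growth.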 Active and inactive are the calls of the source. Rule as the data show it: active = GI50 up to about 1.1 µM and inactive = higher.

Columns and labels:
Assay in all cases: NCI tumour cell line growth inhibition, 48 h
[1] = tested on: A549
[2] = tested on: Malme-3M
[3] = tested on: HCC 2998
[4] = tested on: RXF 393
[5] = tested on: U-251
[6] = tested on: MDA-MB-231
[7] = tested on: IGROV-1
[8] = tested on: NCI-H23
[9] = tested on: CAKI-1
[10] = tested on: SNB-75
[11] = tested on: CCRF-CEM
[12] = tested on: SF-268
[13] = tested on: M14
[14] = tested on: SW-620
[15] = tested on: HCT-116
[16] = tested on: MOLT-4
[17] = tested on: SR
[18] = tested on: 786-0
[19] = tested on: SK-MEL-28
[20] = tested on: MDA-N
[21] = tested on: TK-10
[22] = tested on: NCI-H226
[23] = tested on: OVCAR-4
[24] = tested on: MDA-MB-435
[25] = tested on: OVCAR-3
[26] = tested on: Hs-578T
[27] = tested on: HOP-62
[28] = tested on: SF-539
[29] = tested on: MCF7
[30] = tested on: UACC-257
[31] = tested on: HOP-92
[32] = tested on: SK-OV-3
[33] = tested on: OVCAR-8
[34] = tested on: HT-29
[35] = tested on: NCI/ADR-RES
[36] = tested on: SK-MEL-2
[37] = tested on: DU-145
[38] = tested on: COLO 205
[39] = tested on: SF-295
[40] = tested on: T47D
[41] = tested on: UACC-62
[42] = tested on: ACHN
[43] = tested on: NCI-H522
[44] = tested on: HL-60
[45] = tested on: PC-3
[46] = tested on: SNB-19
[47] = tested on: SK-MEL-5
[48] = tested on: LOX IMVI
[49] = tested on: A498
[50] = tested on: KM12
[51] = tested on: UO-31
[52] = tested on: K562
[53] = tested on: EKVX
[54] = tested on: HCT-15
[55] = tested on: SN12C
[56] = tested on: OVCAR-5
[57] = tested on: RPMI-8226
[58] = tested on: BT-549
[59] = tested on: NCI-H460

CC(O)c1cc2c(s1)C(=O)c1ccsc1C2=O (stereo unspecified)
GI50 [1]: 189 nM (active) | GI50 [2]: 19.7 nM (active) | GI50 [3]: 223 nM (active) | GI50 [4]: 213 nM (active) | GI50 [5]: 94.4 nM (active) | GI50 [6]: 96.4 nM (active) | GI50 [7]: 468 nM (active) | GI50 [8]: 16.9 nM (active) | GI50 [9]: 695 nM (active) | GI50 [10]: 64.9 nM (active) | GI50 [11]: 259 nM (active) | GI50 [12]: 162 nM (active) | GI50 [13]: 59.3 nM (active) | GI50 [14]: 138 nM (active) | GI50 [15]: 210 nM (active) | GI50 [16]: 213 nM (active) | GI50 [17]: 103 nM (active) | GI50 [18]: 665 nM (active) | GI50 [19]: 21.6 nM (active) | GI50 [20]: 13.9 nM (active) | GI50 [21]: 461 nM (active) | GI50 [22]: 480 nM (active) | GI50 [23]: 212 nM (active) | GI50 [24]: < 10 nM (active) | GI50 [25]: 52.2 nM (active) | GI50 [26]: 107 nM (active) | GI50 [27]: 142 nM (active) | GI50 [28]: 50.9 nM (active) | GI50 [29]: 45.7 nM (active) | GI50 [30]: 16.7 nM (active) | GI50 [31]: 265 nM (active) | GI50 [32]: 2700 nM (inactive) | GI50 [33]: 220 nM (active) | GI50 [34]: 210 nM (active) | GI50 [35]: 211 nM (active) | GI50 [36]: 126 nM (active) | GI50 [37]: 48.9 nM (active) | GI50 [38]: 1770 nM (inactive) | GI50 [39]: 46.7 nM (active) | GI50 [40]: 316 nM (active) | GI50 [41]: 26.2 nM (active) | GI50 [42]: 117 nM (active) | GI50 [43]: 117 nM (active) | GI50 [44]: 14.4 nM (active) | GI50 [45]: 63.2 nM (active) | GI50 [46]: 241 nM (active) | GI50 [47]: < 12.2 nM (active) | GI50 [48]: 12.5 nM (active) | GI50 [49]: 1530 nM (inactive) | GI50 [50]: 508 nM (active) | GI50 [51]: 212 nM (active) | GI50 [52]: 122 nM (active) | GI50 [53]: 229 nM (active) | GI50 [54]: 40.9 nM | GI50 [55]: 104 nM (active) | GI50 [56]: 140 nM (active) | GI50 [57]: 123 nM (active) | GI50 [58]: 81.5 nM (active)

CCCCNc1nc(SC)nc2[nH]cnc12
GI50 [1]: > 100000 nM (inactive) | GI50 [2]: > 100000 nM (inactive) | GI50 [3]: > 100000 nM (inactive) | GI50 [4]: > 88500 nM (inactive) | GI50 [5]: > 100000 nM (inactive) | GI50 [6]: > 81100 nM (inactive) | GI50 [7]: > 100000 nM (inactive) | GI50 [59]: > 100000 nM (inactive) | GI50 [8]: > 100000 nM (inactive) | GI50 [9]: > 100000 nM (inactive) | GI50 [10]: 76700 nM (inactive) | GI50 [11]: > 100000 nM (inactive) | GI50 [12]: 98400 nM (inactive) | GI50 [13]: > 100000 nM (inactive) | GI50 [14]: > 100000 nM (inactive) | GI50 [15]: > 100000 nM (inactive) | GI50 [16]: > 100000 nM (inactive) | GI50 [17]: > 100000 nM (inactive) | GI50 [18]: > 100000 nM (inactive) | GI50 [19]: > 100000 nM (inactive) | GI50 [20]: > 100000 nM (inactive) | GI50 [21]: > 100000 nM (inactive) | GI50 [22]: > 100000 nM (inactive) | GI50 [23]: > 100000 nM (inactive) | GI50 [24]: > 100000 nM (inactive) | GI50 [25]: > 100000 nM (inactive) | GI50 [26]: 2360 nM (inactive) | GI50 [27]: > 100000 nM (inactive) | GI50 [28]: > 100000 nM (inactive) | GI50 [29]: > 100000 nM (inactive) | GI50 [30]: > 100000 nM (inactive) | GI50 [31]: > 59000 nM (inactive) | GI50 [32]: 5820 nM (inactive) | GI50 [33]: > 64400 nM (inactive) | GI50 [34]: > 100000 nM (inactive) | GI50 [35]: > 100000 nM (inactive) | GI50 [36]: > 100000 nM (inactive) | GI50 [37]: > 100000 nM (inactive) | GI50 [38]: > 100000 nM (inactive) | GI50 [39]: > 100000 nM (inactive) | GI50 [40]: > 100000 nM (inactive) | GI50 [41]: > 100000 nM (inactive) | GI50 [42]: > 100000 nM (inactive) | GI50 [43]: > 100000 nM (inactive) | GI50 [44]: > 100000 nM (inactive) | GI50 [45]: > 100000 nM (inactive) | GI50 [46]: > 74000 nM (inactive) | GI50 [47]: > 100000 nM (inactive) | GI50 [48]: > 100000 nM (inactive) | GI50 [49]: 5960 nM (inactive) | GI50 [50]: > 100000 nM (inactive) | GI50 [51]: > 100000 nM (inactive) | GI50 [52]: > 100000 nM (inactive) | GI50 [53]: > 87700 nM (inactive) | GI50 [54]: > 100000 nM | GI50 [55]: > 100000 nM (inactive) | GI50 [56]: > 100000 nM (inactive) | GI50 [57]: > 100000 nM (inactive) | GI50 [58]: > 100000 nM (inactive)

COc1ccc2cc(CN3CCC(C4CCNCC4)CC3)ccc2c1
GI50 [1]: 12200 nM (inactive) | GI50 [2]: 1720 nM (inactive) | GI50 [3]: 412 nM (active) | GI50 [4]: 2280 nM (inactive) | GI50 [5]: 1910 nM (inactive) | GI50 [6]: 2200 nM (inactive) | GI50 [7]: 3700 nM (inactive) | GI50 [59]: 1930 nM (inactive) | GI50 [8]: 12000 nM (inactive) | GI50 [9]: 2480 nM (inactive) | GI50 [10]: 1910 nM (inactive) | GI50 [11]: 1960 nM (inactive) | GI50 [12]: 2580 nM (inactive) | GI50 [13]: 2060 nM (inactive) | GI50 [14]: 1820 nM (inactive) | GI50 [15]: 1800 nM (inactive) | GI50 [16]: 437 nM (active) | GI50 [17]: 2070 nM (inactive) | GI50 [18]: 1670 nM (inactive) | GI50 [19]: 1750 nM (inactive) | GI50 [20]: 2020 nM (inactive) | GI50 [21]: 3790 nM (inactive) | GI50 [22]: 7930 nM (inactive) | GI50 [23]: 8970 nM (inactive) | GI50 [24]: 1910 nM (inactive) | GI50 [25]: 5410 nM (inactive) | GI50 [26]: 2930 nM (inactive) | GI50 [27]: 2670 nM (inactive) | GI50 [28]: 1710 nM (inactive) | GI50 [29]: 2110 nM (inactive) | GI50 [30]: 1870 nM (inactive) | GI50 [31]: 1790 nM (inactive) | GI50 [32]: 10000 nM (inactive) | GI50 [33]: 3400 nM (inactive) | GI50 [34]: 1300 nM (inactive) | GI50 [35]: 2880 nM (inactive) | GI50 [36]: 1910 nM (inactive) | GI50 [37]: 4200 nM (inactive) | GI50 [38]: 1690 nM (inactive) | GI50 [39]: 1890 nM (inactive) | GI50 [40]: 2330 nM (inactive) | GI50 [41]: 1970 nM (inactive) | GI50 [42]: 3610 nM (inactive) | GI50 [43]: 2170 nM (inactive) | GI50 [44]: 1490 nM (inactive) | GI50 [45]: 7800 nM (inactive) | GI50 [46]: 6650 nM (inactive) | GI50 [47]: 1790 nM (inactive) | GI50 [48]: 1600 nM (inactive) | GI50 [49]: 5330 nM (inactive) | GI50 [50]: 2110 nM (inactive) | GI50 [51]: 2450 nM (inactive) | GI50 [52]: 959 nM (active) | GI50 [53]: 5020 nM (inactive) | GI50 [54]: 2280 nM | GI50 [55]: 6850 nM (inactive) | GI50 [56]: 7760 nM (inactive) | GI50 [57]: 1530 nM (inactive) | GI50 [58]: 8670 nM (inactive)
